Tested on: sensitive, MDR and XDR clinical Mtb strains
Format: cell-based, Mycobacterium tuberculosis
Details: panel of MDR and XDR drug resistant clinical Mtb strains

Cc1ccn2c(C(=O)NCc3ccc(Oc4ccc(F)cc4)cc3)c(C)nc2c1 [Compound 18]
potency surpassing that of PA-824: ~10 fold
